# From ChEMBL document CHEMBL1135718, “CoMFA and CoMSIA 3D QSAR and docking studies on conformationally-restrained cinnamoyl HIV-1 integrase inhibitors: exploration of a binding mode at the active site” (J Med Chem, 2002)
# Target: Human immunodeficiency virus type 1 integrase (Human immunodeficiency virus 1, UniProt Q7ZJM1)
# Experiment: Inhibitory activity against HIV-1 Integrase (HIV-1-IN)
# Sequence of Human immunodeficiency virus type 1 integrase (Q7ZJM1 whole entry): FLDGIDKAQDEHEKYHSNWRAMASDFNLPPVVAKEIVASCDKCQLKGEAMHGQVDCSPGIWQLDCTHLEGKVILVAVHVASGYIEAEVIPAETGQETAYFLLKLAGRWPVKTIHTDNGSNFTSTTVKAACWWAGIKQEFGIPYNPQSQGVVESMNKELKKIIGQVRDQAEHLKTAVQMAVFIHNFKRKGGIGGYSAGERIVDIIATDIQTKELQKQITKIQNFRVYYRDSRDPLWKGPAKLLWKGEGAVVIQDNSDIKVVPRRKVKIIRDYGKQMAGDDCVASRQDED
row,SMILES,IC50 [µM]
1,O=C(/C=C/c1ccc(O)cc1)c1ccc(O)cc1O [ISOLIQUIRITIGENIN],100
2,O=C(/C=C/c1ccc(O)cc1)/C=C/c1ccc(O)cc1,100
3,O=C(/C=C/c1cc(O)ccc1O)OCCc1ccccc1,100
4,COc1ccc(/C=C/C(=O)/C=C/c2ccc(OC)c(OC)c2)cc1OC,100
5,COOC(=O)c1cc2ccc(O)c(O)c2cn1,14.1
6,COOC(=O)c1cc2cc(O)c(O)cc2cn1,100
7,COc1ccc(/C=C/C(=O)OCCc2ccccc2)cc1OC,100
8,O=C(/C=C/c1ccc(O)cc1)CC(=O)/C=C/c1ccc(O)cc1 [BISDEMETHOXYCURCUMIN],100
9,COOC(=O)c1ccc2c(O)c(O)ccc2c1,7.94
10,COC(=O)/C=C/c1ccc(O)c(O)c1 [METHYLCAFFEATE],100
11,O=C(/C=C(O)/C=C/c1ccccc1)/C=C/c1ccccc1,100
12,COc1cc(/C=C2\CCC/C(=C\c3ccc(O)c(OC)c3)C2=O)ccc1O [CYCLOVALONE],100

# The remaining molecules from weak to strong by IC50, led by results:
row,IC50 [µM],SMILES
1,100,O=C(NCc1ccccc1)c1cc2cc(O)c(O)cc2cn1
2,100,COc1ccc(/C=C/C(=O)/C=C(O)/C=C/c2ccc(OC)c(OC)c2)cc1OC
3,100,COc1cc(/C=C/C(=O)OCCc2ccccc2)ccc1O
4,100,CCOC(=O)/C=C/c1ccc(O)c(O)c1 [ETHYL CAFFEATE]
5,100,O=C(/C=C/c1ccc(O)c(O)c1)CCc1ccccc1
6,100,O=C(/C=C/c1ccc(F)c(F)c1)OCCc1ccccc1
